# Measurements: patent US20130150399A1, “INHIBITORS OF THE UNFOLDED PROTEIN RESPONSE AND METHODS FOR THEIR USE” (The Board of Trustees of the Leland Stanford Junior …, priority 2006, published 2013)
# How the values were obtained:
# P58^IPK, DER-1 = assay: Northern blot of XBP-1s transcription targets, HT1080 cells; format: cell-based, human; conditions: 2 μM; Tm or hypoxia 24 hours
# Description: Cells were cultured in 10 cm plates, harvested, and total RNA recovered with Trizol (Invitrogen, San Diego, Calif.). Total RNA (10 μg) was resolved on a 1% agarose-formaldehyde gel. ^32P-labeled probes were prepared using the Rediprime II random-prime labeling kit (GE-Amersham, Buckinghamshire, UK). The primers used to PCR amplify probes are as follows. P58^IPK: 5′[…] 3′ (SEQ ID NO: 4); 5′ […] 3′ (SEQ ID NO: 5). DER-1: 5′ […] 3′ (SEQ ID NO: 6); 5′[…] 3′ (SEQ ID NO: 7). Blots were incubated with probe overnight, washed three times in 2×SSC/0.2% SDS, dried, and exposed to a phosphorimager screen overnight. Images were analyzed using ImageQuant software (Molecular Dynamics).
# A. XBP-luciferase reporter construct. Firefly luciferase was inserted downstream of the IRE1α splice site in human XBP-1 to enable the conditional translation of luciferase under ER stress in an IRE1α-dependent manner. […] After 24 hours, luciferase activity was analyzed in an automated plate reader. For each cell line, values are expressed as the percent inhibition of the median for Tm/Tg-treated wells, corrected for background. […] Values are expressed as the fold increases over uninduced levels. […] Cells were harvested, lysed, and analyzed by immunoblotting with antisera specific for HIF-1α (top), XBP-1s (middle) or actin (bottom). […] Total RNA was analyzed by Northern blotting using radiolabeled probes specific for P58^IPK or DER-1. […]
# XBP-luciferase reporter = assay: In vivo bioluminescence imaging of XBP-luciferase reporter tumor xenografts; design: species or system SCID mice
# Description: HT1080 fibrosarcoma cells (2×10^6) stably expressing the XBP-luciferase reporter were implanted s.c. into severe combined immune deficient (SCID) mice. Ten minutes prior to imaging, mice were injected i.p. with D-luciferin (150 mg/kg) solubilized in PBS. Optical bioluminescence imaging was performed using the IVIS charged-coupled device camera system (Caliper Life Sciences, Hopkinton, Mass.). Mice were imaged for 1-4 minutes per acquisition scan. Signal intensities were analyzed using Living Image software (Caliper).
# A. Irestatin 9389 impairs IRE1α activity in implanted tumor xenografts. Equal numbers (2×10^6) of XBP-luciferase or CMV-luciferase reporter cells were implanted s.c. into SCID mice. After one week, mice were treated with irestatin 9389 (50 mg/kg), followed by optical bioluminescence imaging. B. Inhibition of tumor growth by irestatin 9389. HT1080 s.c. tumor xenografts were established in SCID mice and allowed to reach a mean volume of 150 mm^3 before treatment. Irestatin 9389 (50 mg/kg) or vehicle control was administered q 2d by i.p. injection and continued for 2 weeks, for a total of 6 doses. Tumor volumes were calculated based on caliper measurements taken every 3-5 days. Data points represent the mean volume calculated from at least 7 tumors per group, with SEM shown in one direction. Mean mouse weights+/−SEM are shown in bottom graph. C.
# The increased sensitivity of irestatin-treated cells to hypoxic stress in vitro indicate that selective inhibition of IRE1α signaling could impact tumor growth. […] In contrast, XBP-1s was not detected in normal pancreas specimens (0/20), and infrequently observed in chronic pancreatitis (1/29) (FIG. 15). To explore the effects to irestatin 9389 in vivo, we first established animal dosing parameters using real-time bioluminescence imaging of SCID mice that had been implanted subcutaneously (s.c.) with tumor cells stably expressing the XBP-luciferase reporter. […] The XBP-luciferase signal returned to basal levels by 24 hours after treatment. […] (FIG. 16).
smiles,measurement,setting,value
Cc1csc(NC(=O)CSc2nc3c(c(C(F)(F)F)c2C#N)CCC3)n1 [Compound 9389],induction of P58^IPK and DER-1 expression,"P58^IPK, DER-1",fully inhibited this response
same,time by which XBP-luciferase signal returned to basal levels,"XBP-luciferase reporter; after treatment, 50-60 mg/kg",≤ 24 h
same,duration of XBP-luciferase reporter inhibition after the injection,XBP-luciferase reporter; single doses of 50-60 mg/kg,6 to 8 h
same,inhibition of XBP-luciferase reporter in tumors,XBP-luciferase reporter; single doses of 50-60 mg/kg,robustly inhibited
